Reference: patent US20190365760A1, “A THERAPEUTIC OR PROPHYLACTIC AGENT FOR ISCHEMIC DISEASE, GLAUCOMA, OPTIC NERVE DISEASE, RETINAL DEGENERATIVE DISEASE, ANGIOGENIC RETINAL DISEASE, CANCER, NEURODEGENERATIVE OR AUTOIMMUNE DISEASE, AND A HYPOXIA INDUCING FACTOR INHIBITOR” (KEIO UNIVERSITY, priority 2016, published 2019)

Columns and labels:
[1] = system: HIF; experiment: HIF reporter assay (HIF-activity-dependent Firefly-Luciferase) in 661W cells with CoCl2; format: cell-based, mouse; settings: for cytotoxicity (endogenous control CMV-Renilla-Luciferase activity): CoCl2; for HIF activity (HIF inhibitory activity): CoCl2 200 μM, luminescence 24 hours after CoCl2
Method: (§1) The HIF-activity-dependent Firefly-Luciferase and endogenous control CMV-Renilla-Luciferase were both transgenic into mouse fibroblast cell line (NIH3T3) and mouse retinal […] cell line (661 W) using lentiviruses to generate stable expression lines. HIF can be stabilized by adding cobalt chloride (CoCl2), a PHD inhibitor, to the cells, and luciferin can be added to obtain a luminescent signal correlating with HIF activity. Samples of various natural products were added to the cells to confirm the HIF inhibitory effect of the candidate on cobalt chloride-induced HIF activity.
(§2) Specifically, 1×10^4 of NIH3T3 cells and 0.8×10^4 of 661 W cells were seeded on a 96-well plate with the above cell lines. After cells were engrafted to the bottom of the plate, HIF-activity was induced by adding CoCl2 at 200 μM. The luminescence strength was measured 24 hours after the CoCl2 was added using a Dual-Glo Luciferase assay system manufactured by Promega Corporation. The candidates were added at the same time as the of the CoCl2.

[2] = system: HIF; experiment: HIF reporter assay (HIF-activity-dependent Firefly-Luciferase) in NIH3T3 cells with CoCl2; format: cell-based, mouse; settings: for cytotoxicity (endogenous control CMV-Renilla-Luciferase activity): CoCl2; for HIF activity (HIF inhibitory activity): CoCl2 200 μM, luminescence 24 hours after CoCl2
Method: as §1, §2

[3] = system: HIF; experiment: HIF reporter assay in ARPE19 cells with CoCl2; format: cell-based
Method: as §1, §2
Halofuginone, a halogenated derivative of ferbrifudine in Hydrangea macrophylla, was used as a sample to measure HIF activity on 661W cells, 3T3 cells, or ARPE19 cells in the assays described above. […] In FIGS. 11 to 13, “CoCl2+HF” indicates a system in which CoCl2 are added to the cells. […]

[4] = system: bnip3 gene; experiment: Real-time PCR gene expression in 661W cells with CoCl2; format: cell-based, mouse; settings: CoCl2 200 μM, four hours after adding halofuginone
Method: (§3) In the system of 661W cells to which the CoCl2 was added, the expression levels of the respective genes were measured in order to examine the inhibitory effects of halofuginone on the hif gene induced by the CoCl2 and the bnip3 gene, glut1 gene, pdk1 gene, and vegf gene which are the downstream genes. The expression level was measured by Real-time PCR. Specifically, 3×10^4 of 661 W cells were seeded on a 24-well plate, and CoCl2 was added at a density of 200 μM after cell immobilization. Halofuginone was added at the concentrations shown in FIG. 14 simultaneously with CoCl2. Four hours after adding halofuginone, RNAs were extracted, cDNA was synthesized, and then Real-time PCR was performed to determine the expression levels of the respective genes.

[5] = system: glut1 gene; experiment: as above; format: cell-based, mouse; settings: CoCl2 200 μM, four hours after adding halofuginone
Method: as §3

[6] = system: pdk1 gene; experiment: as above; format: cell-based, mouse; settings: CoCl2 200 μM, four hours after adding halofuginone
Method: as §3

[7] = system: Mouse Retinal Photoinjury Model; experiment: Mouse retinal photoinjury model, electroretinography; format: in vivo, BALB/c mice; settings: 0.4 mg/kg intraperitoneally once daily for 5 days, white LED 3000 lux 1 hour, compared with PBS group
Method: First, 0.4 mg/kg of halofuginone solution dissolved in PBS was administered intraperitoneally once daily to BALB/c mice 8 weeks old for 5 consecutive days (halofuginone group; n=4). The control group received the same amount of PBS (phosphate buffered saline) intraperitoneally (n=4) for the same period of time. Dark adaptation was performed on day 4 of the above period and then on day 5 a white LED of 3000 lux was irradiated for 1 hour. Dark adaptation was performed on day 6 after the light irradiation, and electroretinography was performed on day 7.

[8] = system: Mouse Retinal Ischemia-Reperfusion Model; experiment: Mouse retinal ischemia-reperfusion model, visual evoked potential (VEP); format: in vivo, C57BL6J mice; settings: 0.2 mg/kg intraperitoneally, 1 Hz flashing light 3 cds/m^2
Method: (§4) First, 0.2 mg/kg of halofuginone solution dissolved in PBS was administered intraperitoneally once daily to C57BL6J mice 8 weeks old (male; manufactured by Crea Japan) for 7 consecutive days (Halofuginone group; n=4). The control group received the same dose of PBS intraperitoneally for the same period (n=4).
(§5) Retinal ischemia reperfusion treatment was then performed as follows.
(§6) Nine-week-old mice were administered intraperitoneal anesthetics (three mixtures: medetomidine 0.75 mg/kg, midazolam 4 mg/kg, and butorphanol 5 mg/kg; hereinafter referred to as “MMB”). At the same time as anesthesia, Midrin P ophthalmic solution (Santen Pharmaceutical Co., Ltd.) was used to dilate both eyes.
(§7) The physiological saline infusion bags were fixed at a height of 1.5 m from the laboratory table, inserted into the anterior chamber of the right eye of the mice with 35 G needles perfused with physiological saline, and perfusion was started. Intraocular pressure was measured every 5 minutes (Tonolab hand-held tonometer; manufactured by icare Corporation) to confirm that intraocular pressure was maintained at 85-99 mm Hg. […]
The VEPs of the same individuals were then measured continuously. […]
Differences (P1-N1) from each first negative crest to the next positive crest were measured as amplitudes, and latencies were also measured, and the mean of two times was evaluated as the value of one individual.

[9] = system: Mouse Retinal Ischemia-Reperfusion Model; experiment: Mouse retinal ischemia-reperfusion model, optical coherence tomography (OCT); format: in vivo, C57BL6J mice; settings: 0.2 mg/kg intraperitoneally, radius 250 μm from optic nerve head
Method: as §4, §5, §6, §7
The entire thickness of the retina was evaluated using OCTs in order to measure the total thickness of the retina in the In vivo.
Mice were fixed under MMB anesthesia and the total retinal thickness centered on the optic papilla was measured. […]

[10] = system: mouse ganglion cell disorder model; settings: vitreous administration of N-methyl-D-aspartic acid; previously reported by the inventors; cited from earlier work

| SMILES | cytotoxicity (endogenous control CMV-Renilla-Luciferase activity) [1] | HIF activity (HIF inhibitory activity) [1] | cytotoxicity (endogenous control CMV-Renilla-Luciferase activity) [2] | HIF activity (HIF inhibitory activity) [2] | HIF activity (HIF inhibitory activity) [3] | expression level of the bnip3 gene [4] | expression level of the glut1 gene [5] | expression level of the pdk1 gene [6] | electroretinography amplitude (dark-adapted and light-adapted) [7] | VEP amplitude (P1-N1) [8] [μV] | total thickness of the retina by OCT [9] [μm] | neuroprotective effect [10] |
| --- | --- | --- | --- | --- | --- | --- | --- | --- | --- | --- | --- | --- |
| COc1cccc2c1C(=O)c1c(O)c3c(c(O)c1C2=O)C[C@@](O)(C(=O)CO)C[C@@H]3O[C@H]1C[C@H](N)[C@H](O)[C@H](C)O1 [doxorubicin] | without cytotoxicity | significantly decreased | without cytotoxicity | significantly decreased | – | – | – | – | – | – | – | – |
| O=C(C[C@@H]1NCCC[C@H]1O)Cn1cnc2cc(Br)c(Cl)cc2c1=O [halofuginone] | – | significant level-dependent HIF inhibitory activity | – | significant level-dependent HIF inhibitory activity | significant level-dependent HIF inhibitory activity | decreased | decreased | decreased | decrease in amplitude was suppressed | 92±10.9 | 251.9±7.2 | neuroprotective effect |
| CC[C@@]1(O)C(=O)OCc2c1cc1n(c2=O)Cc2cc3c(CN(C)C)c(O)ccc3nc2-1 [topotecan] | without cytotoxicity | – | without cytotoxicity | – | – | – | – | – | – | – | – | – |
